Measured values taken from US20250352595A1, “PHARMACEUTICAL, FOOD, OR FEED COMPOSITION FOR PREVENTING OR TREATING MUSCLE LOSS CONTAINING RHODODENDRON MUCRONULATUM EXTRACT” (DR. OREGONIN INC., priority 2022, published 2025).

Tested on: 3T3-L1 cells
Assay: Adipocyte differentiation (fat accumulation) measurement by Oil Red-O staining
Format: cell-based, mouse
Conditions: for adipocyte differentiation inhibitory activity depending on the treatment concentration: 3T3-L1 cells, Oil Red O staining; for inhibition at 20 µg/mL: Mus musculus, 20 μg/ml, the highest concentration in the experiment, 3T3-L1 differentiation, Oil Red O, read-out: effect of inhibiting adipogenesis
Experimental: 3T3-L1 cells, a mouse-derived preadipocyte, were purchased from the Korean Cell Line Bank and used. 3T3-L1 cells were cultured in a 37° C.-wet CO2 incubator (5% CO2/95% air) using a cell culture medium (complete DMEM culture medium) in which 10% bovine calf serum (BCF), 100 units/mL penicillin, and 100 μg/mL streptomycin were added to a DMEM medium (Welgene). When the cells were 80% full of the culture dish, the cell monolayer was washed with phosphate buffer saline (PBS, pH 7.4), and then the cells were detached by adding trypsin-2.65 mM EDTA and subcultured, and the medium was exchanged every 2 days.
3T3-L1 cells were seeded onto 24-well plate at a concentration of 1×10^5 cells/well. After the cells reached the confluence state, the cell culture medium was sequentially exchanged with three kinds of differentiation-inducing cultures (DM), and the cells were cultured to induce differentiation into adipocytes. That is, the cell culture medium was exchanged with a differentiation-inducing culture medium in which DMI (1 μM dexamethasone, 0.5 mM 3-isobutyl-1-methylxanthine (IBMX), […]) was added to a DMEM medium containing 10% FBS to stimulate differentiation for 2 days. After 2 days, the cells were exchanged for a new differentiation-inducing culture medium in which 5 μg/mL insulin was added to DMEM medium containing 10% FBS to stimulate differentiation for another 2 days. After stimulating differentiation for a total of 4 days, cells were maintained in DMEM medium containing 10% FBS for 2 days to induce differentiation into adipocytes.
In order to investigate the effect of the test substance on adipocyte differentiation, the test substance was added to the differentiation-inducing culture medium and treated on the cells.
After treatment with the test substance while inducing differentiation of 3T3-L1 cells, the cells were rinsed with DPBS (Welgene), and then the cells were fixed at room temperature for 1 hour by adding 4% paraformaldehyde (PFA, Biosesang). After the cells were fixed, the cells were treated with oil red O (Sigma-Aldrich) solution and stained at room temperature for 1 to 2 hours. After observing the staining degree of adipocytes visually, the cells were rinsed with distilled water and observed for adipocytes through a microscope.

| SMILES | adipocyte differentiation inhibitory activity depending on the treatment concentration | inhibition at 20 µg/mL |
| --- | --- | --- |
| O=C1c2c(O)cc(O)cc2O[C@H](c2ccc(O)c(O)c2)[C@H]1OC1OC[C@@H](O)[C@@H](O)[C@@H]1O (stereo partly drawn) [Taxifolin-3-O-arabinopyranoside, taxifolin-3-O-α-L-arabinopyranoside] | increases in a concentration-dependent manner | ≥ 40% |
| O=C1c2c(O)cc(O)cc2O[C@H](c2ccc(O)c(O)c2)[C@H]1O [Taxifolin-aglycone, taxifolin] | increases in a concentration-dependent manner | ≥ 40% |
